Assay results published in patent publication US11352330B2, “Phenoxymethyl derivatives” (Hoffmann-La Roche Inc., priority 2015, dated 2022).

Target: human ATX (Homo sapiens (Human), UniProt Q13822)
Test: Human ATX enzyme inhibition assay (fluorescence quenching, MR121 substrate)
Assay type: biochemical
Conditions: human His-tagged ATX 30 nM, MR121 substrate 1 μM, 30° C.
Description: Human ATX Enzyme Inhibition Assay
ATX inhibition was measured by a fluorescence quenching assay using a specifically labeled substrate analogue (MR121 substrate). To obtain this MR121 substrate, BOC and TBS protected 6-amino-hexanoic acid (R)-3-({2-[3-(2-{2-[2-(2-amino-ethoxy)-ethoxy]-ethoxy}-ethoxy)-propionylamino]-ethoxy}-hydroxy-phosphoryloxy)-2-hydroxy-propyl ester (Ferguson et al., Org Lett 2006, 8 (10), 2023) was labeled with MR121 fluorophore (CAS 185308-24-1, 1-(3-carboxypropyl)-11-ethyl-1,2,3,4,8,9,10,11-octahydro-dipyrido[3,2-b:2′,3′-i]phenoxazin-13-ium) on the free amine of the ethanolamine side and then, after deprotection, subsequently with tryptophan on the side of the aminohexanoic acid.
Assay working solutions were made as follows:
Assay buffer (50 mM Tris-HCl, 140 mM NaCl, 5 mM KCl, 1 mM CaCl2, 1 mM MgCl2, 0.01% Triton-X-100, pH 8.0;
ATX solution: ATX (human His-tagged) stock solution (1.08 mg/mL in 20 mM bicine, pH 8.5, 0.15 M NaCl, 10% glycerol, 0.3% CHAPS, 0.02% NaN3), diluted to 1.4-2.5× final concentration in assay buffer;
MR121 substrate solution: MR121 substrate stock solution (800 μM MR121 substrate in DMSO), diluted to 2-5× final concentration in assay buffer.
Test compounds (10 mM stock in DMSO, 8 μL) were obtained in 384 well sample plates (Corning Costar #3655) and diluted with 8 μL DMSO. Row-wise serial dilutions were made by transferring 8 μL cpd solution to the next row up to row O. The compound and control solutions were mixed five times and 2 μL were transferred to 384 well assay plates (Corning Costar #3702). Then, 15 μL of 41.7 nM ATX solution was added (30 nM final concentration), mixed five times and then incubated for 15 minutes at 30° C. 10 μL of MR121 substrate solution was added (1 μM final concentration), mixed 30 times and then incubated for 15 minutes at 30° C.

SMILES	IC50 [nM]
COCCNC(=O)c1cccc(-c2cc(Cl)c(C)cc2OCc2n[nH]c(=O)n2C)c1 [Example B17]	16
Cc1cc(OCc2n[nH]c(=O)n2C)c(-c2cc(C(=O)N(C)CCO)ccc2F)cc1Cl [Example B64]	21
Cn1c(COc2cc(Cl)c(C#N)cc2-c2ccc(F)cc2)n[nH]c1=O [Example B32]	31
Cc1cc(OCc2n[nH]c(=O)n2C)c(-c2cc(OCC(C)C)ccc2F)cc1Cl [Example B58]	16
Cc1cc(OCc2n[nH]c(=O)n2C)c(-c2cc(C(=O)N3CCOCC3)ccc2F)cc1Cl [Example B40]	15
Cn1c(COc2cc(Cl)c(C#N)cc2-c2cccc(F)c2)n[nH]c1=O [Example B85]	21
Cc1cc(OCc2n[nH]c(=O)n2C)c(-c2cccc(C(=O)N3CCOCC3)c2)cc1Cl [Example B10]	23
Cc1cc(OCc2n[nH]c(=O)n2C)c(-c2cccc(C(=O)NCCC(=O)O)c2)cc1Cl [Example B47]	82
Cc1cc(OCc2n[nH]c(=O)n2C)c(C2CCC2)cc1Cl [Example A31]	19
Cc1cc(OCc2n[nH]c(=O)n2C)c(-c2cc(CN3CCOC3=O)ccc2F)cc1Cl [Example B82]	8
Cn1c(COc2cc(Cl)c(C#N)cc2-c2cccc(C(=O)N3CCOCC3)c2)n[nH]c1=O [Example B41]	40
Cc1cc(OCc2n[nH]c(=O)n2C)c(-c2ccnn2C)cc1Cl [Example B30]	467
Cc1cc(OCc2n[nH]c(=O)n2C)c(-c2ncco2)cc1Cl [Example B29, 3-[[4-Chloro-5-methyl-2-(1,3-oxazol-2-yl)phenoxy]methyl]-4-methyl-1H-1,2,4-triazol-5-one]	78
Cc1cc(OCc2n[nH]c(=O)n2C)c(-c2ccccc2S(C)(=O)=O)cc1Cl [Example B7]	4200
Cc1cc(C(C)(C)C)c(OCc2ccc(=O)[nH]n2)cc1C#N [Example C13]	40
Cn1c(COc2cc(C#N)ccc2C(C)(C)C)n[nH]c1=O [Example A24]	91
Cn1c(COc2cc(Cl)c(C#N)cc2-c2cc(C(F)(F)F)ccc2F)n[nH]c1=O [Example B96]	37
Cc1cc(OCc2n[nH]c(=O)n2C)c(-c2cccc(S(C)(=O)=O)c2)cc1Cl [Example B6]	8
Cn1c(COc2ccc(N3CCOCC3)cc2C(C)(C)C)n[nH]c1=O [Example A8]	1600
Cc1cc(OCc2n[nH]c(=O)n2C)c(C2CC2)cc1Cl [Example A19]	15
Cc1cc(OCc2n[nH]c(=O)n2C)c(-c2cc(OCC3CCCO3)ccc2F)cc1Cl (stereo not shown) [Example B74]	6
CC(C)c1cc(Cl)ccc1OCc1n[nH]c(=O)n1C [Example A29]	50

SMILES	IC50 [nM]
Cn1c(COc2cc(NS(C)(=O)=O)c(Cl)cc2C2CC2)n[nH]c1=O [Example A23]	> 27000
Cn1c(COc2cc(Cl)c(C#N)cc2-c2cc(Cl)ccc2F)n[nH]c1=O [Example B93]	5
Cc1cc(OCc2n[nH]c(=O)n2C)c(-c2cnc[nH]2)cc1Cl [Example B28, 3-[[4-Chloro-2-(1H-imidazol-5-yl)-5-methylphenoxy]methyl]-4-methyl-1H-1,2,4-triazol-5-one]	5940
Cn1c(COc2cc(Cl)c(C#N)cc2-c2cccc(F)c2F)n[nH]c1=O [Example B91]	4
COC(=O)c1cccc(-c2cc(Cl)c(C)cc2OCc2n[nH]c(=O)n2C)c1 [Example B42, Methyl 3-[5-chloro-4-methyl-2-[(4-methyl-5-oxo-1H-1,2,4-triazol-3-yl)methoxy]phenyl]benzoate]	21
COCC(=O)NCc1ccc(F)c(-c2cc(Cl)c(C)cc2OCc2n[nH]c(=O)n2C)c1 [Example B83]	8
Cc1cc(OCc2n[nH]c(=O)n2C)c(C2CCOCC2)cc1Cl [Example A21]	62
Cn1c(COc2cc(Cl)c(C#N)cc2-c2cc(F)ccc2F)n[nH]c1=O [Example B94]	5
Cn1c(COc2cc(Cl)c(C#N)cc2-c2cc(C(=O)N3CCOCC3)ccc2F)n[nH]c1=O [Example B61]	10
Cc1cc(OCc2n[nH]c(=O)n2C)c(-c2ccno2)cc1Cl [Example B25]	20
Cc1nnc(-c2cccc(-c3cc(C#N)c(Cl)cc3OCc3n[nH]c(=O)n3C)c2)o1 [Example B37]	79
Cc1cc(OCc2n[nH]c(=O)n2C)c(-c2cc(OC3CC3)ccc2F)cc1Cl [Example B92]	1
Cn1cncc1-c1ccc(OCc2n[nH]c(=O)n2C)c(C(C)(C)C)c1 [Example A9]	2610
CNC(=O)c1cccc(-c2cc(C#N)c(Cl)cc2OCc2n[nH]c(=O)n2C)c1 [Example B33]	115
COC(=O)c1ccc(C)c(-c2cc(Cl)c(C)cc2OCc2n[nH]c(=O)n2C)c1 [Example B49, Methyl 3-[5-chloro-4-methyl-2-[(4-methyl-5-oxo-1H-1,2,4-triazol-3-yl)methoxy]phenyl]-4-methylbenzoate]	8
Cc1cc(OCc2ccc(=O)[nH]n2)c(C2CC2)cc1Cl [Example C2, 3-[(4-Chloro-2-cyclopropyl-5-methylphenoxy)methyl]-1H-pyridazin-6-one]	22
Cc1cc(OCc2n[nH]c(=O)n2C)c(-c2cc(OC(C)C)ccc2F)cc1Cl [Example B57]	11
Cc1cc(OCc2n[nH]c(=O)n2C)c(-c2cccc(C(=O)NCC(=O)O)c2)cc1Cl [Example B48]	192
Cc1nc2cc(OCc3n[nH]c(=O)n3C)c(C3CC3)cc2s1 [Example A30]	9
Cc1cc(OCc2ccc(=O)[nH]n2)c(-c2cccnc2O)cc1Cl [Example C11]	5980
Cn1c(COc2cc(Cl)c(C#N)cc2-c2cccc(-c3cc[nH]n3)c2)n[nH]c1=O [Example B34, 2-Chloro-4-[(4-methyl-5-oxo-1H-1,2,4-triazol-3-yl)methoxy]-5-[3-(H-pyrazol-3-yl)phenyl]benzonitrile]	51

Further lines, results first:

IC50 [nM]	SMILES
14	Cc1cc(OCc2n[nH]c3ccccc23)c(C(C)C)cc1Cl [Example D2, 3-[(4-Chloro-5-methyl-2-propan-2-ylphenoxy)methyl]-1H-indazole]
18	Cc1cc(OCc2cc[nH]n2)c(C(C)(C)C)cc1C#N [Example F2, 4-((1H-Pyrazol-3-yl)methoxy)-5-tert-butyl-2-methylbenzonitrile]
1	CC(C)(C)c1cc(Cl)c(C#N)cc1OCc1n[nH]c2cnccc12 [Example D50]
2	Cc1cc(OCc2n[nH]c3ncccc23)c(-c2cccc(C(=O)N3CCOCC3)c2)cc1Cl [Example D17, [3-[5-Chloro-4-methyl-2-(1H-pyrazolo[3,4-b]pyridin-3-ylmethoxy)phenyl]phenyl]-morpholin-4-ylmethanone]
41300	CC(=O)N1CCc2[nH]nc(COc3cc(C)c(Cl)cc3C(C)(C)C)c2C1 [Example E2, 1-(3-((2-tert-Butyl-4-chloro-5-methylphenoxy)methyl)-6,7-dihydro-1H-pyrazolo[4,3-c]pyridin-5(4H)-yl)ethanone]
10	Cc1cc(OCc2n[nH]c3nc(N4CC(O)C4)ncc23)c(C(C)(C)C)cc1Cl [Example D29]
1	Cc1cc(OCc2n[nH]c3ncccc23)c(-c2ccno2)cc1Cl [Example D5]
6	Cc1cc(OCc2n[nH]c3nc(N(C)CCO)ccc23)c(C(C)(C)C)cc1Cl [Example D8, 2-[[3-[(2-tert-Butyl-4-chloro-5-methylphenoxy)methyl]-1H-pyrazolo[3,4-b]pyridin-6-yl]-methylamino]ethanol]
9	Cc1cc(OCc2n[nH]c3cnccc23)c(-c2cc(C(=O)N3CCN(C)C(=O)C3)ccc2F)cc1Cl [Example D44, 4-[3-[5-Chloro-4-methyl-2-(1H-pyrazolo[3,4-c]pyridin-3-ylmethoxy)phenyl]-4-fluorobenzoyl]-1-methylpiperazin-2-one]
> 82000	Cc1cc(OCc2n[nH]c3ccccc23)c(C(C)(C)C)cc1S(C)(=O)=O [Example D10]
9	Cc1cc(OCc2n[nH]c3nc(OCCO)ncc23)c(C(C)(C)C)cc1C#N [Example D38, 5-tert-Butyl-4-[[6-(2-hydroxyethoxy)-1H-pyrazolo[3,4-d]pyrimidin-3-yl]methoxy]-2-methylbenzonitrile]
4	COCCN(C)C(=O)c1ccc(F)c(-c2cc(Cl)c(C)cc2OCc2n[nH]c3cnccc23)c1 [Example D46]
8	Cc1cc(OCc2n[nH]c3nc(N(C)CC(O)CO)ncc23)c(C(C)(C)C)cc1Cl (stereo not shown) [Example D27]
2	Cc1cc(C(C)(C)C)c(OCc2n[nH]c3cnccc23)cc1C#N [Example D49]
13200	Cc1cc(OCc2n[nH]c3nc(OCCO)ccc23)c(C(C)(C)C)cc1Cl [Example D13, 2-[[3-[(2-t-Butyl-4-chloro-&-methylphenoxy)methyl]-1H-pyrazolo[3,4-b]pyridin-6-yl]oxy]ethanol]
